Among the data in PubChem BioAssay (NCI) are TGI and GI50 values, retold here.

Among the test systems are PC-3 prostate; OVCAR-3 ovarian; NCI/ADR-RES ovarian; CAKI-1 renal; MCF7 breast; HCT-15 colon; SF-268 CNS; NCI-H226 lung; NCI-H460 lung; RXF 393 renal.
Holding throughout (experiment): NCI tumour cell line growth inhibition, 48 h

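Five compound concentrations were applied to cells in 96-well plates for 48 hours; endpoints were derived by simple linear interpolation of the resulting dose-response curve. Abbreviation: GI50, concentration required for 50% inhibition of growth. At the TGI there is no net growth.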

In the case of `C[C@]12CC(c3ccccc3O1)C(C(=O)NC13CC4CC(CC(C4)C1)C3)C(=O)N2` (some centres not stated), the TGI is more than 100 µM in the experiment with PC-3 prostate; more than 100 µM in the experiment on OVCAR-3 ovarian; 55.6 µM in the experiment on NCI/ADR-RES ovarian; more than 100 µM with CAKI-1 renal; more than 100 µM in the experiment with MCF7 breast; 60.8 µM with HCT-15 colon. Moreover, the TGI was 96 µM with SF-268 CNS, 71.3 µM in the experiment on NCI-H226 lung, more than 100 µM with NCI-H460 lung and 57.6 µM with RXF 393 renal.
For `CN(C)Cc1ccc(C(=O)Nc2ccc3ncnc(Nc4ccc(Oc5cccc(F)c5)c(Cl)c4)c3c2)cc1`, the GI50 in the experiment with OVCAR-3 ovarian is 1.5 µM; in the experiment with NCI/ADR-RES ovarian it was 1.67 µM; with CAKI-1 renal it was 1.68 µM; with MCF7 breast, 1.54 µM; in the experiment with HCT-15 colon, 1.25 µM; in the experiment with SF-268 CNS, 1.53 µM. For the same compound, the figures for the GI50 in the experiment with NCI-H460 lung and in the experiment on RXF 393 renal were 1.76 µM and 1.5 µM, respectively. The TGI in the experiment on OVCAR-3 ovarian was 2.92 µM; with NCI/ADR-RES ovarian, 3.45 µM; with CAKI-1 renal, 3.15 µM; in the experiment with MCF7 breast, 3 µM; in the experiment with HCT-15 colon, 2.62 µM; in the experiment on SF-268 CNS, 3.28 µM. The results for the TGI with NCI-H460 lung and in the experiment with RXF 393 renal were 3.31 µM and 2.99 µM, respectively.
For the compound `O=C1c2ccccc2-c2ccc(N=[N+]([O-])c3ccc4c(c3)C(=O)c3ccccc3-4)cc21`, the TGI with PC-3 prostate, with OVCAR-3 ovarian, in the experiment with NCI/ADR-RES ovarian, in the experiment on CAKI-1 renal, with MCF7 breast and in the experiment on HCT-15 colon was more than 100 µM in each case. For the same compound, the TGI in the experiment on SF-268 CNS, with NCI-H226 lung, in the experiment on NCI-H460 lung and with RXF 393 renal was more than 100 µM throughout.
For the compound `C=C1C(=O)OC2C1C(OC(=O)/C(C)=C/C)CC1(C)C(=O)CCC(=C)C21` (configuration not stated), the TGI came out at 22.9 µM in the experiment on PC-3 prostate; 19.7 µM in the experiment with OVCAR-3 ovarian; 33.8 µM in the experiment on NCI/ADR-RES ovarian; 17.9 µM in the experiment with CAKI-1 renal; 18 µM with MCF7 breast; 10.3 µM in the experiment with HCT-15 colon. The TGI in the experiment with SF-268 CNS is 33.4 µM; in the experiment with NCI-H226 lung, 55.9 µM; with NCI-H460 lung, more than 52.8 µM; in the experiment with RXF 393 renal, 11 µM.
Take `CC(C)CC1c2[nH]c3ccccc3c2C[C@H]2C(=O)NC(CCC(=O)OC(C)(C)C)C(=O)N12` (some centres not stated): the TGI was 69 µM with PC-3 prostate; 41.7 µM in the experiment with OVCAR-3 ovarian; more than 100 µM with NCI/ADR-RES ovarian; more than 100 µM with CAKI-1 renal; more than 100 µM in the experiment with MCF7 breast; more than 100 µM in the experiment on HCT-15 colon. For the same compound, the TGI with SF-268 CNS was more than 100 µM; with NCI-H226 lung it was more than 100 µM; in the experiment with RXF 393 renal, 72 µM.
As for `c1ccc2sc(C3(N4CCCCC4)CCCC3)cc2c1`, the TGI in the experiment on OVCAR-3 ovarian is 21.8 µM; with NCI/ADR-RES ovarian, 24.8 µM; with CAKI-1 renal, 38.4 µM; in the experiment on MCF7 breast it was 21.5 µM; in the experiment with HCT-15 colon it was 21.6 µM; in the experiment with SF-268 CNS it was 24.3 µM. Further, the results for the TGI in the experiment with NCI-H226 lung, in the experiment on NCI-H460 lung and in the experiment on RXF 393 renal were 13.5 µM, 20.7 µM and 30.3 µM, respectively.
On to `O=C(O)C1CC(c2ccccc2)=NN1c1ccccc1` (configuration not stated), for which the TGI with PC-3 prostate, with OVCAR-3 ovarian, in the experiment with NCI/ADR-RES ovarian, with CAKI-1 renal, in the experiment with MCF7 breast and with HCT-15 colon was more than 100 µM in each case. Besides, the TGI with SF-268 CNS, in the experiment with NCI-H226 lung, with NCI-H460 lung and in the experiment with RXF 393 renal was more than 100 µM each time.
Turning to `S=C1N(c2ccc(Cl)cc2)C2=C(N=Nc3ccccc3)C(=Nc3ccccc3S2)N1c1ccccn1`, the TGI in the experiment with PC-3 prostate stood at 27.6 µM; with OVCAR-3 ovarian, 27.2 µM; in the experiment with NCI/ADR-RES ovarian, 33.4 µM; with CAKI-1 renal, 26.7 µM; in the experiment with MCF7 breast, 15.2 µM; with HCT-15 colon, 23 µM. Also, the TGI is 19.6 µM with SF-268 CNS and 25.7 µM in the experiment with NCI-H460 lung.
In the case of `Oc1cc2cccc[n+]2c2cccc(Cl)c12`, the GI50 in the experiment with MCF7 breast was 16.7 µM; in the experiment on HCT-15 colon, 49.4 µM; with NCI-H460 lung it was 82.1 µM; in the experiment with RXF 393 renal, 26.1 µM. Further, the TGI in the experiment on MCF7 breast came to 36.5 µM; in the experiment on RXF 393 renal, 74.6 µM.
Take `O=S(=O)(c1ccc(I)cc1)N(c1ccccc1)S(=O)(=O)C(F)(F)C(F)(F)C(F)(F)C(F)(F)F`: the TGI with PC-3 prostate is more than 100 µM; in the experiment with OVCAR-3 ovarian it was 50.9 µM; in the experiment on NCI/ADR-RES ovarian, more than 100 µM; with CAKI-1 renal it was 98.2 µM; with MCF7 breast it was more than 100 µM; in the experiment on HCT-15 colon, more than 100 µM. Also, the figures for the TGI in the experiment on NCI-H226 lung, in the experiment with NCI-H460 lung and in the experiment with RXF 393 renal were 58 µM, more than 100 µM and 78.6 µM, respectively.
Regarding `COc1cc(-c2coc3c(OC)c(OC4OC(CO)C(O)C(O)C4O)c(OC)cc3c2=O)cc(OC)c1C` (configuration not stated), the TGI in the experiment with PC-3 prostate is more than 54.3 µM; with OVCAR-3 ovarian, more than 100 µM; with NCI/ADR-RES ovarian, 27.4 µM; with CAKI-1 renal it was 31 µM; in the experiment on MCF7 breast, 25.8 µM; with HCT-15 colon, 19.6 µM. Besides, the TGI was 21.5 µM with SF-268 CNS, 68.1 µM in the experiment on NCI-H226 lung, more than 70.1 µM with NCI-H460 lung and 8.85 µM in the experiment with RXF 393 renal.
